Test results from US6472415B1, “Androgen receptor suppressors in the therapy and diagnosis of prostate cancer, alopecia and other hyper-androgenic syndromes” (priority 1998, dated 2002).
Entries after “also recorded” stand apart in the source; their conditions may differ. Read-outs that look alike come from different tables or passages of the source. Blank lines part the entries; values can stand above or below the compound they belong to.

Legend:
[1] = 38° C., 0.5 mg/mL
Procedure: Compounds were tested for stability in human serum at 38° C. They were dissolved in isopropanol/H2O (95:5), mixed with human serum to a concentration of 0.5 mg/mL, and incubated at 38° C. Serum aliquots were extracted with ethyl acetate and analyzed by HPLC.
(Permadi, H.; Lundgren, B.; Andersson, K.; Sundberg, C.; DePierre, J. W. Effects of perfluoro fatty acids on peroxisome proliferation and mitochondrial size in mouse liver: dose and time factors and effect of chain length. Xenobiotica, 91993) Vol. 23, No. 7, pp.761-70).

androgen receptor = biological target: T1, androgen receptor (Homo sapiens, UniProt P10275, T878A); experiment: Androgen receptor remaining in LNCaP cell lysate, Western Blot; format: cell-based; settings: for Suppression of the AR: 3 μM concentration; for Elimination of the AR: 10 μM concentration; for Percent of the androgen receptor remaining: 48 hours; for Percent Androgen Receptor Remaining: Table 7 controls, incubation time not given
T1 construct: endogenous in cells; host or cells: LNCaP human prostate cancer cells
T1 sequence (P10275 whole entry T878A): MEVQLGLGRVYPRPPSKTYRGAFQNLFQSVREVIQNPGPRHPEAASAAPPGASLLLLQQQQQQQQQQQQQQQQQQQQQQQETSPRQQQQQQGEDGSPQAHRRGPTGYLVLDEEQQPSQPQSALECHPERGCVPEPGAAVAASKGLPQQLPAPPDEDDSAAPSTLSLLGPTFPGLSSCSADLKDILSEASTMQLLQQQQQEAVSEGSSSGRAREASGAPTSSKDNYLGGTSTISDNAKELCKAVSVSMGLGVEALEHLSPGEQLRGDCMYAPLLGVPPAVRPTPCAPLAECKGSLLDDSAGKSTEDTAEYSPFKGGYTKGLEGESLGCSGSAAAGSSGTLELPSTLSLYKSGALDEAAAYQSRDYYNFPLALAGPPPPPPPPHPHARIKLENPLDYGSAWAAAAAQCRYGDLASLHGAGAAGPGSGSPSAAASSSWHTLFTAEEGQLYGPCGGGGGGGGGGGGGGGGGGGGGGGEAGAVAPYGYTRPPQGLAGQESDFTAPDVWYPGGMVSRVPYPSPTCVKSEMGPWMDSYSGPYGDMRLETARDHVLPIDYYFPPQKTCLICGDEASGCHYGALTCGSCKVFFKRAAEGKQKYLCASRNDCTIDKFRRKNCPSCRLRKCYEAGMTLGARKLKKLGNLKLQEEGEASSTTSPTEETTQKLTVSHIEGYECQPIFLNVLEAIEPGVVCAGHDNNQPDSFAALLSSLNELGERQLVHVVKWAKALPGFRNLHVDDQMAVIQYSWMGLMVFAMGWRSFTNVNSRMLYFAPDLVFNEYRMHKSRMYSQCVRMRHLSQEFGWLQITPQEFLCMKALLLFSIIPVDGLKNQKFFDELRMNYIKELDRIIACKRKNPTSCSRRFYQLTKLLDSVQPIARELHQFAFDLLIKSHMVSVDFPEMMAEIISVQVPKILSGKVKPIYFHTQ
Procedure: The interaction of the compounds with AR was studied by incubation with LNCaP cells, subsequent cell lysis and the standard Western Blot assay.

[2] = isopropanol/H2O (95:5), 50° C., up to six days
[3] = Cockshott et al. 1990; cited from earlier work
[4] = test system: prostate and seminal vesicles; experiment: Weight of prostate and seminal vesicles (secondary sex organs) in rats; format: in vivo; settings: castrated rats supplemented with testosterone propionate, 0.5 mg/kg
Procedure: (The dose of 0.1 mg/kg approximates the expected topical daily dose for humans).

[5] = Takagi et al. 1991; cited from earlier work

Compound: CC(O)(CNCC(C)(O)C(=O)Nc1ccc([N+](=O)[O-])c(C(F)(F)F)c1)C(=O)Nc1ccc([N+](=O)[O-])c(C(F)(F)F)c1 (stereo not drawn) [BP-673, 2-hydroxy-3-((2-hydroxy-2-(N-(4-nitro-3-(trifluoromethyl)phenyl)carbamoyl)propyl)amino)-2-methyl-N-(4-nitro-3-(trifluoromethyl)phenyl)propionamide]
Percent of the intact compound remaining in human serum ([1]; 24 h): 100% | Percent of the intact compound remaining in human serum ([1]; 48 h): 100% | Percent of the intact compound remaining in human serum ([1]; 6 d): 100% | Suppression of the AR (androgen receptor): important suppression | Elimination of the AR (androgen receptor): practically eliminated the AR | Percent of the androgen receptor remaining (androgen receptor; LNCaP, 3μ Molar conc.): 74% | Percent of the androgen receptor remaining (androgen receptor; LNCaP, 10μ Molar conc.): 3% | Change via HPLC in accelerated stability study [2]: no change was observed

Percent of the androgen receptor remaining (androgen receptor; LNCaP, 3μ Molar conc.): 64% | Percent of the androgen receptor remaining (androgen receptor; LNCaP, 10μ Molar conc.): 20%
Compound: CC(O)(CNCCOCCOCCNCC(C)(O)C(=O)Nc1ccc([N+](=O)[O-])c(C(F)(F)F)c1)C(=O)Nc1ccc([N+](=O)[O-])c(C(F)(F)F)c1 (stereo not drawn) [BP-676]

Compound: CCCNC(=S)Nc1ccc(C#N)c(C(F)(F)F)c1 [BP-735, N-(3-trifluoromethyl-4-cyanophenyl), N′-propyl thiourea]
Suppression of the AR (androgen receptor): important suppression | Elimination of the AR (androgen receptor): practically eliminated the AR | Percent of the androgen receptor remaining (androgen receptor; LNCaP, 3μ Molar conc.): 45% | Percent of the androgen receptor remaining (androgen receptor; LNCaP, 10μ Molar conc.): 1%

Compound: CC(O)(CNC(=O)Nc1ccc(I)cc1)C(=O)Nc1ccc([N+](=O)[O-])c(C(F)(F)F)c1 (stereo not drawn) [BP-754]
Percent of the androgen receptor remaining (androgen receptor; LNCaP, 3μ Molar conc.): 28% | Percent of the androgen receptor remaining (androgen receptor; LNCaP, 10μ Molar conc.): 14%

Compound: CC(O)(CS(=O)(=O)c1ccc(F)cc1)C(=O)Nc1ccc(C#N)c(C(F)(F)F)c1 (stereo not drawn) [Bicalutamide, reference compound]
Peak serum levels as % of the dose, reported [3]: 0.03% | Reduction of secondary sex organs' weight [4]: about 20%

Percent Androgen Receptor Remaining (androgen receptor; LNCaP, 3μ Molar conc): 98% | Percent of the androgen receptor remaining (androgen receptor; LNCaP, 3μ Molar conc.): 98% | Percent Androgen Receptor Remaining (androgen receptor; LNCaP, 10μ Molar conc): 94% | Percent of the androgen receptor remaining (androgen receptor; LNCaP, 10μ Molar conc.): 94%
Compound: CC(C)(O)C(=O)Nc1ccc([N+](=O)[O-])c(C(F)(F)F)c1 [Hydroxyflutamide, reference compound]
Effect on the AR (androgen receptor; LNCaP, Western Blot): have not shown any significant effect on the AR; also recorded: have not shown any significant suppression of the AR

Compound: O=C(O)C(F)(F)C(F)(F)C(F)(F)F [perfluorobutyric acid]
Toxicity [5]: low toxicity
